Experimental data reported in patent US20250367218A1, “METHODS OF TREATING METABOLIC DISORDERS AND COMBINATION PRODUCTS FOR USE IN THE SAME” (INSTITUT PASTEUR DE MONTEVIDEO, priority 2024, published 2025).

What was measured:
[1] = Blood glucose measurements: fasting/basal glucose and glucose tolerance test (GTT) in HFD mice; type: in vivo, C57BL/6J mice; settings: SANA 200 mg/kg/day PO after discontinuation of concomitant SANA plus semaglutide, versus semaglutide 10 nmol/kg/day alone; FIGS. 6E, 6F
Experimental: Blood glucose measurements: Mice were kept in fasting for 16 h before fasting glucose measurement and glucose tolerance tests (GTT). When performing GTT, mice were injected (IP) with 1.5 g/kg body weight of glucose solution. Plasma glucose concentrations were measured from blood obtained from the tail using a hand-held glucometer (Accu-Chek, Roche).
Glucose tolerance (“GTT”), basal glucose, and glucose Area Under the Curve (“AUC”) were also measured following two weeks of treatment, and the results are presented graphically in FIGS. 2A, 2B, and 2C with * indicating a statistically significant difference, p<0.05.
A higher dose of SANA was then assessed for its ability to prevent the regain of weight in mice following discontinuation of GLP-1 treatment. Referring to FIGS. 6B and 6C, mice were fed a high-fat diet for a period of 5.5 weeks, and then were untreated (HFD), treated with GLP-1 agonist (semaglutide, 10 nmol/kg/day—SC), or treated with semaglutide+SANA for a period of 1.5 weeks, at which time, the semaglutide treatment was ceased and the groups were treated only with SANA (200 mg/kg/day, PO). The weight regain of the mice was monitored for another 1.5-6.5 weeks. *, **, ***, #, and ## show statistically significant differences, p<0.05, p<0.01, p<0.001, p<0.05, and p<0.01, respectively. […]

[2] = Cumulative food intake of mice fed a high-fat diet (HFD); type: in vivo, C57BL/6J mice; settings: SANA 200 mg/kg/day PO continued after 1.5 weeks of concomitant SANA plus semaglutide 10 nmol/kg/day; FIG. 6D
Experimental: (§1) All studies conducted in mice utilized C57BL/6J mice maintained at the Institut Pasteur de Montevideo Animal facility (UBAL). Experimental protocols were approved by the Institutional Animal Care and Use Committee of the Institut Pasteur de Montevideo (CEUA, Protocol numbers 003-19 and 006-19). Studies were performed according to the methods approved in the protocols. All the experiments were performed on adult male mice (10-12 weeks of age) and were conducted at either 22° C. with free access to food and water. Unless specified, mice were housed at 22° C. in groups of five.
High-fat diet (HFD) feeding: Male C57BL/6J mice housed at 22° C. were fed a high-fat diet (42% fat and 0.25% cholesterol, AlN93G, LabDiet, USA), starting at 12 weeks of age and for a duration of 5 weeks prior to beginning administration of any active pharmaceutical ingredients. After the onset of the treatment, HFD ad libitum was maintained until the end of the experiments. […]
A higher dose of SANA was then assessed for its ability to prevent the regain of weight in mice following discontinuation of GLP-1 treatment. […] The weight regain of the mice was monitored for another 1.5-6.5 weeks. *, **, ***, #, and ## show statistically significant differences, p<0.05, p<0.01, p<0.001, p<0.05, and p<0.01, respectively. […]

[3] = cited from earlier work
[4] = Body weight of obese mice fed a high-fat diet (HFD) during treatment; type: in vivo, C57BL/6J mice
Experimental: as §1
High-fat diet (HFD) feeding: Male C57BL/6J mice housed at 22° C. were fed a high-fat diet (42% fat and 0.25% cholesterol, AlN93G, LabDiet, USA), starting at 12 weeks of age and for a duration of 5 weeks prior to beginning administration of any active pharmaceutical ingredients. After the onset of the treatment, HFD ad libitum was maintained until the end of the experiments.
Drug delivery: SANA was administered orally (PO) by mixing with the food (50, 100, or 200 mg/kg/day), or subcutaneously (SC, 10, 15, or 20 mg/kg/day in 100 mM phosphate buffer, pH 6.5). In all cases the vehicle was used as control. Liraglutide (Novo Nordisk, Denmark) was administered daily, subcutaneously (SC, 0.2 mg/kg/day). Semaglutide (Ozempic®, Novo Nordisk, Denmark) was administered subcutaneously (SC, 2 nmol/kg/day or 40 mg/kg every 3 days).
Mice were fed with a high fat diet (HFD) for 5 weeks prior to the initiation of treatment, and the high-fat diet continued during a 2-week treatment period. FIGS. 1A-1B show graphs of average mouse weight without treatment (HFD, n=8), treatment with SANA (HFD+SANA, 200 mg/kg/day, n=9), treatment with liraglutide (HFD+LIRA, 0.2 mg/kg/day, n=8), or treatment with a combination of SANA (200 mg/kg/day) and liraglutide (0.2 mg/kg/day) (HFD+SANA+LIRA, n=10).
FIGS. 3A and 3B show graphs of the average mouse weight without treatment (n=9), treatment with SANA (15 mg/kg/day, n=8), treatment with semaglutide (2 nmol/kg/day, n=10), or treatment with a combination of SANA (15 mg/kg/day) and semaglutide (2 nmol/kg/day) (n=10). Mice were fed with a high fat diet (HFD) for 5.5 weeks prior to the initiation of treatment, and the high-fat diet continued during the 3-week treatment period. Referring to FIGS. 3A and 3B, obese mice administered SANA alone (HFD+SANA) or semaglutide alone (HFD+SEMA) experienced an average weight loss of about 5% after three weeks.
In a separate experiment, different doses of subcutaneous semaglutide alone were compared to treatment with oral administration of SANA alone, and to treatment with a combination of oral SANA and two different doses of subcutaneous semaglutide. […]

[5] = Serum non-esterified fatty acids (NEFA) in HFD mice; type: in vivo, C57BL/6J mice; settings: 4 weeks; SANA 200 mg/kg/day, semaglutide 2 nmol/kg/day, alone or combined; FIG. 7B
Experimental: As described in Example 2A above, mice were fed with a high fat diet (HFD) for 5.5 weeks prior to the initiation of treatment, and the high-fat diet continued during the 4 week treatment period. Different doses of semaglutide were provided, either alone or in combination with SANA, and compared to SANA alone and untreated mice alone. Specifically, mice were either untreated (HFD) (n=5), or treated with SANA (200 mg/kg/day, n=5), semaglutide (0.25 nmol/kg/day, n=5), semaglutide (2 nmol/kg/day, n=4), a combination of SANA (200 mg/kg/day) and semaglutide (0.25 nmol/kg/day) (n=5), or a combination of SANA (200 mg/kg/day) and semaglutide (2 nmol/kg/day) (n=3).
Next, different doses of SANA were tested, either alone or in combination with semaglutide, and compared to treatment with semaglutide alone and untreated mice. Specifically, as described in Example 2A above, mice were fed with a high fat diet (HFD) for 5.5 weeks prior to the initiation of treatment, and the high-fat diet continued during the 1.5-week treatment period. […]

[6] = Weight regain of HFD mice after discontinuation of treatment (rebound effect); type: in vivo, C57BL/6J mice
Experimental: Comparison of weight regain in mice following discontinuation of treatment with SANA or a GLP-1 agonist was measured in order to quantify the “rebound effect” as a result of discontinuing treatment. Mice were fed a high-fat diet for a period of 5 weeks, and were then untreated (HFD), treated with GLP-1 agonist (liraglutide, 0.2 mg/kg/day SC daily injection, LIRA), or treated with SANA (200 mg/kg/day PO) for a period of nine weeks. The high-fat diet was continued during the treatment period. Following week 9, all treatment was discontinued and weight regain in the mice was monitored through week 14.
The ability of SANA to prevent the regain of weight in mice following discontinuation of GLP-1 treatment was also assessed. Mice were fed a high-fat diet for a period of 5.5 weeks, and were then untreated (HFD), treated with GLP-1 agonist (semaglutide, 40 mg/kg s.c. every 3 days), or treated with semaglutide+SANA (10 mg/kg/day) for a period of 2.5 weeks. At week 8, except for the control group (HFD) all groups were treated only with SANA (10 mg/kg/day, s.c.).
A higher dose of SANA was then assessed for its ability to prevent the regain of weight in mice following discontinuation of GLP-1 treatment. […] The weight regain of the mice was monitored for another 1.5-6.5 weeks. *, **, ***, #, and ## show statistically significant differences, p<0.05, p<0.01, p<0.001, p<0.05, and p<0.01, respectively.

[7] = obese mice treated with SANA, WO2020058917A1 / US2023346728A1

## O=C(O)c1cc(/C=C/[N+](=O)[O-])ccc1O [SANA, 5-(2-nitroethenyl) salicylic acid]
[1]
  fasting glucose, lower: 55%
[2]
  cumulative food intake after discontinuation of semaglutide: remained lower
[3]; mice under diet-induced obesity (DIO), by activating creatine-dependent thermogenesis
  thermogenesis and beiging of white adipose tissue: stimulates thermogenesis and beiging of white adipose tissue
[3]; [7]
  fat accretion: resistance to fat accretion
  glucose intolerance: improved glucose intolerance
  liver steatosis: absence of liver steatosis
  response to cold challenge: improved response to cold challenge
[4]; HFD mice, nine weeks, liraglutide 0.2 mg/kg/day SC or SANA 200 mg/kg/day PO, FIG. 5
  average reduction in weight during the treatment period: 15%
[4]; obese HFD mice, after four weeks, oral SANA 200 mg/kg/day, subcutaneous semaglutide 2 nmol/kg/day, alone or concomitant, FIGS. 3E, 3F
  average weight loss: about 5%
[4]; obese HFD mice, after three weeks, SANA 15 mg/kg/day, semaglutide 2 nmol/kg/day, alone or concomitant, FIGS. 3A, 3B
  average weight loss: about 5%
[4]; obese HFD mice, after two weeks, SANA 200 mg/kg/day, liraglutide 0.2 mg/kg/day, alone or concomitant, FIGS. 1A, 1B
  weight loss: about 10%
[5]
  drop in serum NEFA levels: little to no change
[6]; SANA 10 mg/kg/day s.c. after 2.5 weeks of semaglutide (40 mg/kg s.c. every 3 days) alone or SANA plus semaglutide, FIG. 6A
  regain of weight after discontinuation of semaglutide: prevented regain of weight
[6]; SANA 200 mg/kg/day PO after 1.5 weeks of semaglutide (10 nmol/kg/day SC) alone or SANA plus semaglutide, FIGS. 6B, 6C
  regain of weight after discontinuation of semaglutide: prevented regain of weight
